Tests used:
Assay type in all cases: functional
Persicaria lapathifolia [1] = assay: Post-emergence herbicidal activity against three-leaf stage Persicaria lapathifolia assessed as efficacy of weed growth control at 750 g ai/ha under greenhouse conditions
Cynodon dactylon [2] = assay: Post-emergence herbicidal activity against 15 cm leaf stage Cynodon dactylon assessed as efficacy of weed growth control at 60 g ai/ha under greenhouse conditions
Cyperus microiria = assay: Post-emergence herbicidal activity against three-leaf stage Cyperus microiria assessed as efficacy of weed growth control at 40 g ai/ha under greenhouse conditions
Cyperus rotundus [3] = assay: Post-emergence herbicidal activity against four to five-leaf stage Cyperus rotundus assessed as efficacy of weed growth control at 80 g ai/ha under greenhouse conditions
Amaranthus viridis [4] = assay: Post-emergence herbicidal activity against three-leaf stage Amaranthus viridis assessed as efficacy of weed growth control at 60 g ai/ha under greenhouse conditions
Cynodon dactylon [5] = assay: Post-emergence herbicidal activity against 15 cm leaf stage Cynodon dactylon assessed as efficacy of weed growth control at 40 g ai/ha under greenhouse conditions
Eleusine indica [6] = assay: Post-emergence herbicidal activity against three-leaf stage Eleusine indica assessed as efficacy of weed growth control at 80 g ai/ha under greenhouse conditions
Sida spinosa [7] = assay: Post-emergence herbicidal activity against two-leaf stage Sida spinosa assessed as efficacy of weed growth control at 40 g ai/ha under greenhouse conditions
Galinsoga quadriradiata [8] = assay: Post-emergence herbicidal activity against four-leafstage of Galinsoga quadriradiata assessed as efficacy of weed growth control at 750 g ai/ha under greenhouse conditions
Capsella bursa-pastoris [9] = assay: Post-emergence herbicidal activity against four-leafstage Capsella bursa-pastoris assessed as efficacy of weed growth control at 40 g ai/ha under greenhouse conditions
Digitaria sanguinalis [10] = assay: Post-emergence herbicidal activity against two-leaf stage Digitaria sanguinalis (hairy crabgrass) assessed as efficacy of weed growth control at 80 g ai/ha under greenhouse conditions
Galinsoga quadriradiata [11] = assay: Post-emergence herbicidal activity against four-leafstage of Galinsoga quadriradiata assessed as efficacy of weed growth control at 40 g ai/ha under greenhouse conditions
Avena fatua [12] = assay: Post emergence herbicidal activity against three-leaf stage Avena fatua assessed as efficacy of weed growth control at 750 g ai/ha under greenhouse conditions
Capsella bursa-pastoris [13] = assay: Post-emergence herbicidal activity against four-leafstage Capsella bursa-pastoris assessed as efficacy of weed growth control at 60 g ai/ha under greenhouse conditions
Solanum nigrum = assay: Post emergence herbicidal activity against four-leaf stage Solanum nigrum (black nightshade) assessed as efficacy of weed growth control at 750 g ai/ha under greenhouse conditions
Digitaria sanguinalis [14] = assay: Post-emergence herbicidal activity against two-leaf stage Digitaria sanguinalis (hairy crabgrass) assessed as efficacy of weed growth control at 40 g ai/ha under greenhouse conditions
Persicaria lapathifolia [15] = assay: Post-emergence herbicidal activity against three-leaf stage Persicaria lapathifolia assessed as efficacy of weed growth control at 60 g ai/ha under greenhouse conditions
Echinochloa crus-galli [16] = assay: Post emergence herbicidal activity against three-leaf stage Echinochloa crus-galli (barnyard grass) assessed as efficacy of weed growth control at 60 g ai/ha under greenhouse conditions
Senna tora = assay: Post-emergence herbicidal activity against one-leaf stage Senna tora assessed as efficacy of weed growth control at 60 g ai/ha under greenhouse conditions
Portulaca oleracea [17] = assay: Post-emergence herbicidal activity against three-leaf stage Portulaca oleracea assessed as efficacy of weed growth control at 750 g ai/ha under greenhouse conditions
Stellaria media [18] = assay: Post-emergence herbicidal activity against eight-leaf stage Stellaria media assessed as efficacy of weed growth control at 80 g ai/ha under greenhouse conditions
Sorghum halepense [19] = assay: Post emergence herbicidal activity against four to five-leaf stage Sorghum halepense (Johnson grass) assessed as efficacy of weed growth control at 60 g ai/ha under greenhouse conditions
Echinochloa crus-galli [20] = assay: Post emergence herbicidal activity against three-leaf stage Echinochloa crus-galli (barnyard grass) assessed as efficacy of weed growth control at 750 g ai/ha under greenhouse conditions
Amaranthus viridis [21] = assay: Post-emergence herbicidal activity against three-leaf stage Amaranthus viridis assessed as efficacy of weed growth control at 40 g ai/ha under greenhouse conditions
Amaranthus viridis [22] = assay: Post-emergence herbicidal activity against three-leaf stage Amaranthus viridis assessed as efficacy of weed growth control at 750 g ai/ha under greenhouse conditions
Eleusine indica [23] = assay: Post emergence herbicidal activity against three-leaf stage Eleusine indica assessed as efficacy of weed growth control at 60 g ai/ha under greenhouse conditions
Portulaca oleracea [24] = assay: Post-emergence herbicidal activity against three-leaf stage Portulaca oleracea assessed as efficacy of weed growth control at 60 g ai/ha under greenhouse conditions
Avena fatua [25] = assay: Post emergence herbicidal activity against three-leaf stage Avena fatua assessed as efficacy of weed growth control at 40 g ai/ha under greenhouse conditions
Cyperus rotundus [26] = assay: Post-emergence herbicidal activity against four to five-leaf stage Cyperus rotundus assessed as efficacy of weed growth control at 40 g ai/ha under greenhouse conditions
Persicaria lapathifolia [27] = assay: Post-emergence herbicidal activity against three-leaf stage Persicaria lapathifolia assessed as efficacy of weed growth control at 40 g ai/ha under greenhouse conditions
Portulaca oleracea [28] = assay: Post-emergence herbicidal activity against three-leaf stage Portulaca oleracea assessed as efficacy of weed growth control at 40 g ai/ha under greenhouse conditions
Sida spinosa [29] = assay: Post-emergence herbicidal activity against two-leaf stage Sida spinosa assessed as efficacy of weed growth control at 80 g ai/ha under greenhouse conditions
Stellaria media [30] = assay: Post-emergence herbicidal activity against eight-leaf stage Stellaria media assessed as efficacy of weed growth control at 750 g ai/ha under greenhouse conditions
Sorghum halepense [31] = assay: Post emergence herbicidal activity against four to five-leaf stage Sorghum halepense (Johnson grass) assessed as efficacy of weed growth control at 40 g ai/ha under greenhouse conditions
Abutilon theophrasti = assay: Post-emergence herbicidal activity against one-leaf stage Abutilon theophrasti (velvetleaf) assessed as efficacy of weed growth control at 40 g ai/ha under greenhouse conditions
Cynodon dactylon [32] = assay: Post-emergence herbicidal activity against 15 cm leaf stage Cynodon dactylon assessed as efficacy of weed growth control at 750 g ai/ha under greenhouse conditions
Digitaria sanguinalis [33] = assay: Post-emergence herbicidal activity against two-leaf stage Digitaria sanguinalis (hairy crabgrass) assessed as efficacy of weed growth control at 750 g ai/ha under greenhouse conditions
Commelina communis = assay: Post emergence herbicidal activity against two-leaf stage Commelina communis (Asiatic dayflower) assessed as efficacy of weed growth control at 40 g ai/ha under greenhouse conditions
Sorghum halepense [34] = assay: Post emergence herbicidal activity against four to five-leaf stage Sorghum halepense (Johnson grass) assessed as efficacy of weed growth control at 750 g ai/ha under greenhouse conditions
Sida spinosa [35] = assay: Post-emergence herbicidal activity against two-leaf stage Sida spinosa assessed as efficacy of weed growth control at 750 g ai/ha under greenhouse conditions
Capsella bursa-pastoris [36] = assay: Post-emergence herbicidal activity against four-leaf stage Capsella bursa-pastoris assessed as efficacy of weed growth control at 80 g ai/ha under greenhouse conditions
Capsella bursa-pastoris [37] = assay: Post-emergence herbicidal activity against four-leafstage Capsella bursa-pastoris assessed as efficacy of weed growth control at 750 g ai/ha under greenhouse conditions

**Q.** Which results are given for COc1cc(OC)nc(NC(=O)NS(=O)(=O)c2ncccc2C(=O)N(C)C)n1 [NICOSULFURON]?
**A.** Efficacy (Persicaria lapathifolia [1]): 95%; Efficacy (Cynodon dactylon [2]): <50%; Efficacy (Cyperus microiria): 95%; Efficacy (Cyperus rotundus [3]): 70%; Efficacy (Amaranthus viridis [4]): 95%; Efficacy (Cynodon dactylon [5]): <50%; Efficacy (Eleusine indica [6]): 95%; Efficacy (Sida spinosa [7]): 50%; Efficacy (Galinsoga quadriradiata [8]): 95%; Efficacy (Capsella bursa-pastoris [9]): 70%; Efficacy (Digitaria sanguinalis [10]): 95%; Efficacy (Galinsoga quadriradiata [11]): 70%; Efficacy (Avena fatua [12]): <50%; Efficacy (Capsella bursa-pastoris [13]): 95%; Efficacy (Solanum nigrum): 95%; Efficacy (Digitaria sanguinalis [14]): 70%; Efficacy (Persicaria lapathifolia [15]): 95%; Efficacy (Echinochloa crus-galli [16]): 95%; Efficacy (Senna tora): 50%; Efficacy (Portulaca oleracea [17]): 95%; Efficacy (Stellaria media [18]): 95%; Efficacy (Sorghum halepense [19]): 95%; Efficacy (Echinochloa crus-galli [20]): 50%; Efficacy (Amaranthus viridis [21]): 95%; Efficacy (Amaranthus viridis [22]): 50%; Efficacy (Eleusine indica [23]): 95%; Efficacy (Portulaca oleracea [24]): 95%; Efficacy (Avena fatua [25]): 95%; Efficacy (Cyperus rotundus [26]): <50%; Efficacy (Persicaria lapathifolia [27]): 70%; Efficacy (Portulaca oleracea [28]): 70%; Efficacy (Sida spinosa [29]): 70%; Efficacy (Stellaria media [30]): 95%; Efficacy (Sorghum halepense [31]): 70%; Efficacy (Abutilon theophrasti): 50%; Efficacy (Cynodon dactylon [32]): <50%; Efficacy (Digitaria sanguinalis [33]): <50%; Efficacy (Commelina communis): 70%; Efficacy (Sorghum halepense [34]): <50%; Efficacy (Sida spinosa [35]): 95%; Efficacy (Capsella bursa-pastoris [36]): 95%; Efficacy (Capsella bursa-pastoris [37]): 95%
